Here are results for 26 molecules from patent US6506772B1, “Substituted [1,2,4]triazolo[1,5a]pyridine derivatives with activity as adenosine receptor ligands” (Hoffmann-La Roche Inc., priority 2000, dated 2003).

In one test the target is T1, HA1 adenosine receptor (Homo sapiens, UniProt P30542).
T1 sequence (P30542 1-326): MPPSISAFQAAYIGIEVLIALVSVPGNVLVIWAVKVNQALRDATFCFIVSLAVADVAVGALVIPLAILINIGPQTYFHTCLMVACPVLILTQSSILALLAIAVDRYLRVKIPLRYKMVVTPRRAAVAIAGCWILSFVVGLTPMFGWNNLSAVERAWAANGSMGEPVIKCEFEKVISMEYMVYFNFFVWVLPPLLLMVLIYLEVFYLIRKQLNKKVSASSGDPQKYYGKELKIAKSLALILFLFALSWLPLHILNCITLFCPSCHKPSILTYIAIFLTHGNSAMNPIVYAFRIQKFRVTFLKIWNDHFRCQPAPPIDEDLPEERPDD
Briefly: Human adenosine A1 receptor affinity (Ki hA1). The settings on record: affinity to human adenosine A1 receptor. The test is classed as binding.

Test [1] addresses T2, human adenosine A2A receptor (Homo sapiens, UniProt P29274).
T2 construct: expressed in transfected cells; host or cells: CHO cells, Semliki Forest virus expression system; membrane preparation
The experiment in a line: Human adenosine A2A receptor [3H]-SCH-58261 binding assay. The settings on record: for Ki: affinity to human adenosine A2A receptor, read-out: Ki HA2A; for selectivity (A1/A2a): calculated ratio of the affinity to the HA1 receptor to the HA2a receptor.

T2 sequence (P29274 whole entry): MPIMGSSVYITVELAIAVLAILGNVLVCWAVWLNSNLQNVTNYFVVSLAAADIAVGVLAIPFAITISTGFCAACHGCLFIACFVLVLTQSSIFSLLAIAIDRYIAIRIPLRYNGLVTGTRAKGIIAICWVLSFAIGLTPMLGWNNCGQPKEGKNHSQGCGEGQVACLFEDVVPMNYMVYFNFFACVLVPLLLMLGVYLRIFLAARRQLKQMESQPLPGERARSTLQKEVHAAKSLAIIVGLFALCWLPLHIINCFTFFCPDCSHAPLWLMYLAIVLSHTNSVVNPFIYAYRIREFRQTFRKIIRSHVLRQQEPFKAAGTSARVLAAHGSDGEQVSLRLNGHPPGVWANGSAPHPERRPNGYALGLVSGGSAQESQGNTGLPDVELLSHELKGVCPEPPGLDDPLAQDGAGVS

For the molecule `COc1ccccc1CNC(=O)c1cc(N)n2nc(-c3ccoc3)nc2c1` [Example 228, 5-Amino-2-furan-3-yl-[1,2,4]triazolo[1,5-a]pyridine-7-carboxylic acid 2-methoxy-benzylamide], the Ki at HA1 adenosine receptor is 164 nM; in test [1], 30.5 nM. Also, the “selectivity (A1/A2a)” value in test [1] is listed as 5.4.
For `CCN(CC)C(=O)c1cc(N)n2nc(-c3ccc(Cl)o3)nc2c1` [Example 233, 5-Amino-2-(5-chloro-furan-2-yl)-[1,2,4]triazolo[1,5-a]pyridine-7-carboxylic acid diethylamide] the same measures were 280 nM, 7.2 nM and 38.7.
On the same counts, the results for `Nc1cc(C(=O)NC2CCCCC2)cc2nc(-c3ccc(Cl)o3)nn12` [Example 234, 5-Amino-2-(5-chloro-furan-2-yl)-[1,2,4]triazolo[1,5-a]pyridine-7-carboxylic acid cyclohexylamide] are 455 nM, 69.5 nM and 6.6.
On the same counts, the results for `Nc1cc(C(=O)N2CCCC2)cc2nc(-c3ccc(Cl)o3)nn12` [Example 235, [5-Amino-2-(5-chloro-furan-2-yl)-[1,2,4]triazolo[1,5-a]pyridin-7-yl]-pyrrolidin-1-yl-methanone] are 770 nM, 18.1 nM and 42.5.
In turn, `Nc1cc(C(=O)N2CCCCC2)cc2nc(-c3ccc(Cl)o3)nn12` [Example 236, [5-Amino-2-(5-chloro-furan-2-yl)-[1,2,4]triazolo[1,5-a]pyridin-7-yl]-piperidin-1-yl-methanone] gave a Ki at HA1 adenosine receptor of 325 nM. Also, in test [1], the Ki worked out at 9.2 nM and the “selectivity (A1/A2a)” value is on record as 35.2.
With `Nc1cc(C(=O)N2CCOCC2)cc2nc(-c3ccc(Cl)o3)nn12` [Example 237, [5-Amino-2-(5-chloro-furan-2-yl)-[1,2,4]triazolo[1,5-a]pyridin-7-yl]-morpholin-4-yl-methanone], the Ki on HA1 adenosine receptor turned out to be 708 nM; in test [1], 52.3 nM. Besides, in test [1], the “selectivity (A1/A2a)” value is on record as 13.5.
On the same counts, the results for `Nc1cc(C(=O)NCc2ccccc2)cc2nc(-c3ccc(Cl)o3)nn12` [Example 238, 5-Amino-2-(5-chloro-furan-2-yl)-[1,2,4]triazolo[1,5-a]pyridine-7-carboxylic acid benzylamide] are 94.3 nM, 40.4 nM and 2.3.
Take `CC(C)N(Cc1ccccc1)C(=O)c1cc(N)n2nc(-c3ccc(Cl)o3)nc2c1` [Example 239, 5-Amino-2-(5-chloro-furan-2-yl)-[1,2,4]triazolo[1,5-a]pyridine-7-carboxylic acid benzyl-isopropyl-amide]: the affinity at HA1 adenosine receptor, expressed as Ki, was 25.1 nM. In test [1], the Ki is 1.7 nM and the “selectivity (A1/A2a)” value is 14.6.
For the molecule `CN(C(=O)c1cc(N)n2nc(-c3ccc(Cl)o3)nc2c1)C1CCCCC1` [Example 242, 5-Amino-2-(5-chloro-furan-2-yl)-[1,2,4]triazolo[1,5-a]pyridine-7-carboxylic acid cyclohexyl-methyl-amide], the Ki is 124 nM on HA1 adenosine receptor and 6.5 nM in test [1]. Besides, the “selectivity (A1/A2a)” value in test [1] was 19.0.
For `CCN(C(=O)c1cc(N)n2nc(-c3ccc(Cl)o3)nc2c1)C1CCCCC1` [Example 243, 5-Amino-2-(5-chloro-furan-2-yl)-[1,2,4]triazolo[1,5-a]pyridine-7-carboxylic acid cyclohexyl-ethyl-amide] the same measures were 95.6 nM, 3.3 nM and 28.6.
Take `Nc1cc(C(=O)NCc2ccc(Cl)cc2)cc2nc(-c3ccc(Cl)o3)nn12` [Example 244, 5-Amino-2-(5-chloro-furan-2-yl)-[1,2,4]triazolo[1,5-a]pyridine-7-carboxylic acid 4-chloro-benzylamide]: the Ki on HA1 adenosine receptor was determined as 190 nM. Also, in test [1], the Ki was 218 nM and the “selectivity (A1/A2a)” value is on record as 0.9.
On the same counts, the results for `Nc1cc(C(=O)NCc2ccc(F)cc2)cc2nc(-c3ccc(Cl)o3)nn12` [Example 245, 5-Amino-2-(5-chloro-furan-2-yl)-[1,2,4]triazolo[1,5-a]pyridine-7-carboxylic acid 4-fluoro-benzylamide] are 289 nM, 155 nM and 1.9.
`COc1ccccc1CNC(=O)c1cc(N)n2nc(-c3ccc(Cl)o3)nc2c1` [Example 246, 5-Amino-2-(5-chloro-furan-2-yl)-[1,2,4]triazolo[1,5-a]pyridine-7-carboxylic acid 2-methoxy-benzylamide] yielded a Ki at HA1 adenosine receptor of 71.7 nM. In test [1], the Ki came out at 24 nM and the “selectivity (A1/A2a)” value is recorded as 3.0.
On the same counts, the results for `CN(CC1CC1)C(=O)c1cc(N)n2nc(-c3ccc(Cl)o3)nc2c1` [Example 247, 5-Amino-2-(5-chloro-furan-2-yl)-[1,2,4]triazolo[1,5-a]pyridine-7-carboxylic acid cyclopropylmethyl-methyl-amide] are 161 nM, 9.2 nM and 17.6.
On the same counts, the results for `CN(C)C(=O)c1cc(N)n2nc(-c3ccc(Cl)o3)nc2c1` [Example 248, 5-Amino-2-(5-chloro-furan-2-yl)-[1,2,4]triazolo[1,5-a]pyridine-7-carboxylic acid dimethylamide] are 601 nM, 44.3 nM and 13.6.
For `Nc1cc(C(=O)N2CCC2)cc2nc(-c3ccc(Cl)o3)nn12` [Example 249, [5-Amino-2-(5-chloro-furan-2-yl)-[1,2,4]triazolo[1,5-a]pyridin-7-yl]-azetidin-1-yl-methanone] the same measures were 6210 nM, 2090 nM and 3.0.
As to `CCN(C)C(=O)c1cc(N)n2nc(-c3ccc(Cl)o3)nc2c1` [Example 250, 5-Amino-2-(5-chloro-furan-2-yl)-[1,2,4]triazolo[1,5-a]pyridine-7-carboxylic acid ethyl-methyl-amide], the inhibition constant Ki on HA1 adenosine receptor was 459 nM; in test [1] it was 19.1 nM. For the same molecule, the “selectivity (A1/A2a)” value in test [1] is 24.0.
For `C=CCN(C)C(=O)c1cc(N)n2nc(-c3ccc(Cl)o3)nc2c1` [Example 251, 5-Amino-2-(5-chloro-furan-2-yl)-[1,2,4]triazolo[1,5-a]pyridine-7-carboxylic acid allyl-methyl-amide], the Ki at HA1 adenosine receptor was determined as 360 nM; in test [1], 14.7 nM. The “selectivity (A1/A2a)” value in test [1] is given as 24.5.
As for `CCCN(C)C(=O)c1cc(N)n2nc(-c3ccc(Cl)o3)nc2c1` [Example 252, 5-Amino-2-(5-chloro-furan-2-yl)-[1,2,4]triazolo[1,5-a]pyridine-7-carboxylic acid methyl-propyl-amide], the Ki at HA1 adenosine receptor was 438 nM. Also, in test [1], the Ki turned out to be 15.5 nM and the “selectivity (A1/A2a)” value is 28.3.
With `Nc1cc(C(=O)N2CC=CCC2)cc2nc(-c3ccc(Cl)o3)nn12` [Example 253], the Ki at HA1 adenosine receptor was 276 nM. In test [1], the Ki came to 9.5 nM and the “selectivity (A1/A2a)” value is listed as 28.9.
As for `CC1CCCN1C(=O)c1cc(N)n2nc(-c3ccc(Cl)o3)nc2c1` (stereo not drawn) [Example 254, [5-Amino-2-(5-chloro-furan-2-yl)-[1,2,4]triazolo[1,5-a]pyridin-7-yl]-(2-methyl-pyrrolidin-1-yl)-methanone], affinity at HA1 adenosine receptor was put at a Ki of 503 nM. For the same molecule, in test [1], the Ki stood at 11.2 nM and the “selectivity (A1/A2a)” value is 44.8.
`CCN(C(=O)c1cc(N)n2nc(-c3ccc(Cl)o3)nc2c1)C(C)C` [Example 255, 5-Amino-2-(5-chloro-furan-2-yl)-[1,2,4]triazolo[1,5-a]pyridine-7-carboxylic acid ethyl-isopropyl-amide] yielded a Ki on HA1 adenosine receptor of 92.5 nM. Also, in test [1], the Ki is 3.2 nM and the “selectivity (A1/A2a)” value is 28.9.
As to `Nc1cc(C(=O)N2CCSCC2)cc2nc(-c3ccc(Cl)o3)nn12` [Example 256, [5-Amino-2-(5-chloro-furan-2-yl)-[1,2,4]triazolo[1,5-a]pyridin-7-yl]-thiomorpholin-4-yl-methanone], at HA1 adenosine receptor, the affinity, expressed as Ki, was 430 nM. Moreover, in test [1], the Ki amounted to 24.4 nM and the “selectivity (A1/A2a)” value is listed as 17.7.
At HA1 adenosine receptor, `CC1CN(C(=O)c2cc(N)n3nc(-c4ccc(Cl)o4)nc3c2)CC(C)O1` (stereo not drawn) [Example 257, [5-Amino-2-(5-chloro-furan-2-yl)-[1,2,4]triazolo[1,5-a]pyridin-7-yl]-(2,6-dimethyl-morpholin-4-yl)-methanone] displayed a Ki of 819 nM. Besides, in test [1], the Ki was found to be 28.9 nM and the “selectivity (A1/A2a)” value is given as 28.3.
Take `CC1CCC(C)N1C(=O)c1cc(N)n2nc(-c3ccc(Cl)o3)nc2c1` (stereo not drawn) [Example 258, [5-Amino-2-(5-chloro-furan-2-yl)-[1,2,4]triazolo[1,5-a]pyridin-7-yl]-(2,5-dimethyl-pyrrolidin-1-yl)-methanone]: the Ki came to 221 nM on HA1 adenosine receptor and 7.2 nM in test [1]. The “selectivity (A1/A2a)” value in test [1] is 30.6.
`NC(=O)C1CCN(C(=O)c2cc(N)n3nc(-c4ccc(Cl)o4)nc3c2)CC1` [Example 259, 1-[5-Amino-2-(5-chloro-furan-2-yl)-[1,2,4]triazolo[1,5-a]pyridine-7-carbonyl]-piperidine-4-carboxylic acid amide]: the Ki worked out at 540 nM at HA1 adenosine receptor and 119 nM in test [1]. Besides, the “selectivity (A1/A2a)” value in test [1] was 4.5.

In general, Ki refers to the equilibrium dissociation constant of an inhibitor or competing ligand from its target.
